These results are taken from patent US11203574B2 (BioCryst Pharmaceuticals, Inc., priority 2014, dated 2021).

In the test the target is human plasma kallikrein (Homo sapiens (Human), UniProt P03952). The test can be described thus: Plasma kallikrein activity assay (chromogenic substrate S2302). In kind it is biochemical. As to conditions: 2 nM kallikrein, 80 μM S2302, 30° C., pH 7.8; Ki by Cheng-Prusoff equation; values given as ranges; read-out: Ki.

For orientation: Ki means the dissociation constant of the complex between target and ligand, obtained from inhibition or displacement.

Sequence of human plasma kallikrein (P03952 whole entry, looked up): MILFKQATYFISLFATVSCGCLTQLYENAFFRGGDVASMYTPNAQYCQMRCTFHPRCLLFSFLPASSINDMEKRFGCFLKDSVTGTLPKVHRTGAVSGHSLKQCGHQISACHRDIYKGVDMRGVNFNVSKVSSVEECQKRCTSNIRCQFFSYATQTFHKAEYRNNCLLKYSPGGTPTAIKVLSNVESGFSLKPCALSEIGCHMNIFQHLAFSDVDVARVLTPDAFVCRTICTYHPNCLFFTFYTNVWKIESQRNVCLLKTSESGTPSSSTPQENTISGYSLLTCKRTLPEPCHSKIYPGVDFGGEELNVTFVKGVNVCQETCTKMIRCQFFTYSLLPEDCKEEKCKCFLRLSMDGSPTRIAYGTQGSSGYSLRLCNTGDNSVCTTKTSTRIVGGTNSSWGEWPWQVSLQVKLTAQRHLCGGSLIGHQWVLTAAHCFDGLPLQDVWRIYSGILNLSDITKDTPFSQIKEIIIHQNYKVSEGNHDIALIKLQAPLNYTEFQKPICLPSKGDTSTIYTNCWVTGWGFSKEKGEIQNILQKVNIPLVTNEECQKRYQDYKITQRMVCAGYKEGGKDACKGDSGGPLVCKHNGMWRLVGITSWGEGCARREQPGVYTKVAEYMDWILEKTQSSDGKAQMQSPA
Sequence of human plasma kallikrein (P03952 whole entry partner, looked up): as the sequence (P03952 whole entry, looked up) above

As to `CN(C)c1ccc(C(NCC2CC2)c2cccc(NC(=O)c3cc(C(F)(F)F)nn3-c3cccc(CN)c3)c2)c2ccccc12` (stereo not shown) [126g, 2-(3-Aminomethyl-phenyl)-5-trifluoromethyl-2H-pyrazole-3-carboxylic acid {3-[(cyclopropylmethyl-amino)-(4-dimethylamino-naphthalen-1-yl)-methyl]-phenyl}-amide], the Ki lay within 0.1 to 50 nM.

As for `CCCOc1ccc(C(NCC2CC2)c2cccc(NC(=O)c3cc(C(F)(F)F)nn3-c3cccc(CN)c3)c2)cc1` (stereo not shown) [127f, 1-(3-(Aminomethyl)phenyl)-N-(3-((cyclopropylmethylamino)(4-propoxyphenyl)methyl)phenyl)-3-(trifluoromethyl)-1H-pyrazole-5-carboxamide], the Ki lay within 0.1 to 50 nM. For `NCc1cccc(-n2nc(C(F)(F)F)cc2C(=O)Nc2cccc(C(NCC3CC3)c3ccc4ccccc4c3)c2)c1` (stereo not shown) [128g, 1-(3-(aminomethyl)phenyl)-N-(3-((cyclopropylmethylamino)(naphthalen-2-yl)methyl)phenyl)-3-(trifluoromethyl)-1H-pyrazole-5-carboxamide] the value was 0.1 to 50 nM. Regarding `NCc1cccc(-n2nc(C(F)(F)F)cc2C(=O)Nc2cccc(C(NCC3CC3)c3cccc4ccccc34)c2)c1` (stereo not shown) [129f, 1-(3-(aminomethyl)phenyl)-N-(3-((cyclopropylmethylamino)(naphthalen-1-yl)methyl)phenyl)-3-(trifluoromethyl)-1H-pyrazole-5-carboxamide], the Ki was in the range of 0.1 to 50 nM. For `NCc1cccc(-n2nc(C(F)(F)F)cc2C(=O)Nc2cc(C(NCC3CC3)c3cccc(N)c3)ccc2F)c1` (stereo not shown) [131b, 1-(3-(aminomethyl)phenyl)-N-(5-((3-aminophenyl)(cyclopropylmethylamino)methyl)-2-fluorophenyl)-3-(trifluoromethyl)-1H-pyrazole-5-carboxamide] the value was 0.1 to 50 nM. For `NCc1cccc(-n2nc(C(F)(F)F)cc2C(=O)Nc2cc(C(NCC3CC3)c3ccncc3)ccc2F)c1` (stereo not shown) [132f, 1-(3-(aminomethyl)phenyl)-N-(5-(((cyclopropylmethyl)amino)(pyridin-4-yl)methyl)-2-fluorophenyl)-3-(trifluoromethyl)-1H-pyrazole-5-carboxamide], the Ki fell in the range of 0.1 to 50 nM. The same measure for `NCc1cccc(-n2nc(C(F)(F)F)cc2C(=O)Nc2cccc(C(NCC3CC3)c3ccc(-c4ccccc4)cc3)c2)c1` (stereo not shown) [133g, 1-(3-(aminomethyl)phenyl)-N-(3-(biphenyl-4-yl(cyclopropylmethylamino)methyl)phenyl)-3-(trifluoromethyl)-1H-pyrazole-5-carboxamide]: 0.1 to 50 nM; for `COc1ccc2cc(C(NCC3CC3)c3cccc(NC(=O)c4cc(C(F)(F)F)nn4-c4cccc(CN)c4)c3)ccc2c1` (stereo not shown) [134f, 1-(3-(aminomethyl)phenyl)-N-(3-((cyclopropylmethylamino)(6-methoxynaphthalen-2-yl)methyl)phenyl)-3-(trifluoromethyl)-1H-pyrazole-5-carboxamide]: 0.1 to 50 nM; for `NCc1cccc(-n2nc(C(F)(F)F)cc2C(=O)Nc2cccc(C(NCC3CC3)c3ccc(O)cc3)c2)c1` (stereo not shown) [135c, 1-(3-(aminomethyl)phenyl)-N-(3-(((cyclopropylmethyl)amino)(4-hydroxyphenyl)methyl)phenyl)-3-(trifluoromethyl)-1H-pyrazole-5-carboxamide]: 0.1 to 50 nM. Consider `NCc1cccc(-n2nc(C(F)(F)F)cc2C(=O)Nc2cccc(C(NCC3CC3)c3cccc(O)c3)c2)c1` (stereo not shown) [137a, 1-(3-(Aminomethyl)phenyl)-N-(3-((cyclopropylmethylamino)(3-hydroxyphenyl)methyl)phenyl)-3-(trifluoromethyl)-1H-pyrazole-5-carboxamide], for which the Ki lay in the range of 0.1 to 50 nM. For `CC(=O)Nc1ccc(C(NCC2CC2)c2cccc(NC(=O)c3cc(C(F)(F)F)nn3-c3cccc(CN)c3)c2)cc1` (stereo not shown) [138f, N-(3-((4-acetamidophenyl)(cyclopropylmethylamino)methyl)phenyl)-1-(3-(aminomethyl)phenyl)-3-(trifluoromethyl)-1H-pyrazole-5-carboxamide] the value was 0.1 to 50 nM; for `Cc1cccc(C(NCC2CC2)c2ccc(F)c(NC(=O)c3cc(C(F)(F)F)nn3-c3cccc(CN)c3)c2)c1` (stereo not shown) [140e, 1-(3-(aminomethyl)phenyl)-N-(5-(((cyclopropylmethyl)amino)(m-tolyl)methyl)-2-fluorophenyl)-3-(trifluoromethyl)-1H-pyrazole-5-carboxamide], 0.1 to 50 nM; for `COc1cccc(C(NCC2CC2)c2ccc(F)c(NC(=O)c3cc(C(F)(F)F)nn3-c3cccc(CN)c3)c2)c1` (stereo not shown) [141e, 1-(3-(aminomethyl)phenyl)-N-(5-(((cyclopropylmethyl)amino)(3-methoxyphenyl)methyl)-2-fluorophenyl)-3-(trifluoromethyl)-1H-pyrazole-5-carboxamide], 0.1 to 50 nM. Turning to `Cc1cc(C(=O)Nc2cccc(C(NCC3CC3)c3ccccc3)c2)n(-c2cccc(CN)c2)n1` (stereo not shown) [143l, 1-(3-(aminomethyl)phenyl)-N-(3-((cyclopropylmethylamino)(phenyl)methyl)phenyl)-3-methyl-1H-pyrazole-5-carboxamide], the Ki fell in the range of 0.1 to 50 nM. For `CC(C)NC(c1ccccc1)c1cccc(NC(=O)c2cc(C(F)(F)F)nn2-c2cccc(CN)c2)c1` (stereo not shown) [144d, 1-(3-(Aminomethyl)phenyl)-N-(3-((isopropylamino)(phenyl)methyl)phenyl)-3-(trifluoromethyl)-1H-pyrazole-5-carboxamide] the value was 0.1 to 50 nM.

As to `NCc1cccc(-n2nc(C(F)(F)F)cc2C(=O)Nc2cccc(C(NCC3CC3)c3cc(O)ccc3O)c2)c1` (stereo not shown) [146g, 1-(3-(aminomethyl)phenyl)-N-(3-((cyclopropylmethylamino)(2,5-dihydroxyphenyl)methyl)phenyl)-3-(trifluoromethyl)-1H-pyrazole-5-carboxamide], the Ki lay within 0.1 to 50 nM. The same measure for `CC(=O)Nc1ccc(C(OCC2CC2)c2cccc(NC(=O)c3cc(C(F)(F)F)nn3-c3cccc(CN)c3)c2)cc1` (stereo not shown) [147e, N-(3-((4-acetamidophenyl)(cyclopropylmethoxy)methyl)phenyl)-1-(3-(aminomethyl)phenyl)-3-(trifluoromethyl)-1H-pyrazole-5-carboxamide]: 0.1 to 50 nM. The same measure for `NCc1cccc(-n2nc(C(F)(F)F)cc2C(=O)Nc2cccc(C(OCC3CC3)c3ccc(O)cc3)c2)c1` (stereo not shown) [149b, 1-(3-(aminomethyl)phenyl)-N-(3-((cyclopropylmethoxy)(4-hydroxyphenyl)methyl)phenyl)-3-(trifluoromethyl)-1H-pyrazole-5-carboxamide]: 0.1 to 50 nM. For `NCc1cccc(-n2nc(C(F)(F)F)cc2C(=O)Nc2cccc(C(NCC3CC3)c3cccc(O)c3O)c2)c1` (stereo not shown) [150f, 1-(3-(aminomethyl)phenyl)-N-(3-((cyclopropylmethylamino)(2,3-dihydroxyphenyl)methyl)phenyl)-3-(trifluoromethyl)-1H-pyrazole-5-carboxamide], the Ki was in the range of 0.1 to 50 nM.

`COc1cccc(C(NCC2CC2)c2cccc(NC(=O)c3cc(C(F)(F)F)nn3-c3cccc(CN)c3)c2)c1O` (stereo not shown) [151g, 1-(3-(Aminomethyl)phenyl)-N-(3-((cyclopropylmethylamino)(2-hydroxy-3-methoxyphenyl)methyl)phenyl)-3-(trifluoromethyl)-1H-pyrazole-5-carboxamide]: the Ki is 0.1 to 50 nM. The same measure for `N#Cc1cccc(C(NCC2CC2)c2cccc(NC(=O)c3cc(C(F)(F)F)nn3-c3cccc(CN)c3)c2)c1` (stereo not shown) [152d, 1-(3-(aminomethyl)phenyl)-N-(3-((3-cyanophenyl)(cyclopropylmethylamino)methyl)phenyl)-3-(trifluoromethyl)-1H-pyrazole-5-carboxamide]: 0.1 to 50 nM; for `NCc1cccc(-n2nc(C(F)(F)F)cc2C(=O)Nc2cc(C(NCC3CC3)c3ccc(C(N)=O)cc3)ccc2F)c1` (stereo not shown) [153b, 1-(3-(aminomethyl)phenyl)-N-(5-((4-carbamoylphenyl)(cyclopropylmethyl-amino)methyl)-2-fluorophenyl)-3-(trifluoromethyl)-1H-pyrazole-5-carboxamide]: 0.1 to 50 nM. The same measure for `COc1ccc(C(NCC2CC2)c2cccc(NC(=O)c3cc(C(F)(F)F)nn3-c3cccc(CN)c3)c2)c2ccccc12` (stereo not shown) [154e, 1-(3-(aminomethyl)phenyl)-N-(3-((cyclopropylmethylamino)(4-methoxynaphthalen-1-yl)methyl)phenyl)-3-(trifluoromethyl)-1H-pyrazole-5-carboxamide]: 0.1 to 50 nM.

As to `NCc1cccc(C(NCC2CC2)c2ccc(F)c(NC(=O)c3cc(C(F)(F)F)nn3-c3cccc(CN)c3)c2)c1` (stereo not shown) [155c, 1-(3-(aminomethyl)phenyl)-N-(5-((3-(aminomethyl)phenyl)(cyclopropylmethylamino)methyl)-2-fluorophenyl)-3-(trifluoromethyl)-1H-pyrazole-5-carboxamide], the Ki fell in the range of 0.1 to 50 nM. The same measure for `COC(CCC1CC1)(c1cccnc1)c1cccc(NC(=O)c2cc(C(F)(F)F)nn2-c2cccc(CN)c2)c1` (stereo not shown) [156c, 1-(3-(aminomethyl)phenyl)-N-(3-(3-cyclopropyl-1-methoxy-1-(pyridin-3-yl)propyl)phenyl)-3-(trifluoromethyl)-1H-pyrazole-5-carboxamide]: 0.1 to 50 nM. The same measure for `CN1CCc2c(ccc(NC(=O)c3cc(C(F)(F)F)nn3-c3cccc(CN)c3)c2F)C1` [164e, 1-(3-(aminomethyl)phenyl)-N-(5-fluoro-2-methyl-1,2,3,4-tetrahydroisoquinolin-6-yl)-3-(trifluoromethyl)-1H-pyrazole-5-carboxamide]: 0.1 to 50 nM; for `CCC(CO)NC(c1ccccc1)c1cccc(NC(=O)c2cc(C(F)(F)F)nn2-c2cccc(CN)c2)c1` (stereo not shown) [168b, 1-(3-(Aminomethyl)phenyl)-N-(3-(((1-hydroxybutan-2-yl)amino)(phenyl)methyl)phenyl)-3-(trifluoromethyl)-1H-pyrazole-5-carboxamide]: 0.1 to 50 nM; for `NCc1cccc(-n2nc(C(F)(F)F)cc2C(=O)Nc2cccc(C(NC3CCC3)c3ccccc3)c2)c1` (stereo not shown) [188b, 1-(3-(Aminomethyl)phenyl)-N-(3-((cyclobutylamino)(phenyl)methyl)phenyl)-3-(trifluoromethyl)-1H-pyrazole-5-carboxamide]: 0.1 to 50 nM.
